Reference: ChEMBL document CHEMBL3045907, “Discovery and development of pyridalyl” (J Pestic Sci, 2012)

Key:
[1] = Acute toxicity in Rattus norvegicus (rat) compound administered intradermally; format: organism-based; conditions: in vivo
[2] = Solubility of the compound in water; format: physicochemical; conditions: buffer
[3] = Acute toxicity in po dosed Rattus norvegicus (rat); format: organism-based; conditions: in vivo
[4] = Octanol-water partition co-efficient, log P of the compound at 20 degC; format: physicochemical
[5] = Acute toxicity in Rattus norvegicus (rat) compound administered through inhalation; format: organism-based; conditions: in vivo, inhaled or intranasal
[6] = Toxicity in Cyprinidae (carp fish); format: ADME, organism-based; conditions: in vivo

## FC(F)(F)c1ccc(OCCCOc2c(Cl)cc(OCC=C(Cl)Cl)cc2Cl)nc1 [PYRIDALYL]
[1]
  LD50: > 2000 mg/kg
[2]
  solubility: 0.15 ppb
[3]
  LD50: > 5000 mg/kg
[4]
  logP: 8.1
[5]
  LC50: > 2.01 µg/mL
[6]
  LC50: > 10 µg/mL
